Results from the supplement of paper PMC10307832.

Tests used:
Experiment in all cases: relative viability (nuclei count vs DMSO), 5 days (fraction); higher = more cells survive
[1] = compound: CCN(CCO)CCCC(C)Nc1ccnc2cc(Cl)ccc12 [Hydroxychloroquine] + CS(=O)(=O)N1CCN(Cc2cc3nc(-c4cccc5[nH]ncc45)nc(N4CCOCC4)c3s2)CC1 [Pictilisib] (partner 1 µM)
Procedure, shortened: (§1)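 A single step with final 0.05% Triton X-100, 1% formaldehyde and 1 ug/ml Hoechst fixed the cells and stained nuclei 5 days after treatment. Lung cancer cell lines in 1536-well plates had been treated by pin tool the day after seeding with one drug alone or a fixed anchor-drug dose plus five library-drug doses (not always all listed) in √10 steps, and nuclei were counted on 4× images. Relative viability is the ratio of nuclei in treated wells to nuclei in vehicle wells, taken as the median of duplicate plates.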

[2] = compound: CCN(CCO)CCCC(C)Nc1ccnc2cc(Cl)ccc12 [Hydroxychloroquine] + CCNC(=O)c1noc(-c2cc(C(C)C)c(O)cc2O)c1-c1ccc(CN2CCOCC2)cc1 [Luminespib] (partner 0.01 µM)
Procedure, shortened: as §1

[3] = compound: CCN(CCO)CCCC(C)Nc1ccnc2cc(Cl)ccc12 [Hydroxychloroquine] + CC(=O)c1c(C)c2cnc(Nc3ccc(N4CCNCC4)cn3)nc2n(C2CCCC2)c1=O [Palbociclib] (partner 0.5 µM)
Procedure, shortened: as §1

[4] = compound: CCN(CCO)CCCC(C)Nc1ccnc2cc(Cl)ccc12 [Hydroxychloroquine] + COc1cccc2cc(-c3nc([C@H]4CC[C@H](C(=O)O)CC4)n4ncnc(N)c34)[nH]c12 [OSI-027] (partner 0.5 µM)
Procedure, shortened: as §1

| Cell Line | relative viability ([1]; first compound 0.5 µM) | relative viability ([1]; first compound 1.581 µM) | relative viability ([1]; first compound 5 µM) | relative viability ([1]; first compound 15.81 µM) | relative viability ([1]; first compound 50 µM) | relative viability ([2]; first compound 0.5 µM) | relative viability ([2]; first compound 1.581 µM) | relative viability ([2]; first compound 5 µM) | relative viability ([2]; first compound 15.81 µM) | relative viability ([2]; first compound 50 µM) | relative viability ([3]; first compound 0.5 µM) | relative viability ([3]; first compound 1.581 µM) | relative viability ([3]; first compound 5 µM) | relative viability ([3]; first compound 15.81 µM) | relative viability ([3]; first compound 50 µM) | relative viability ([4]; first compound 0.5 µM) | relative viability ([4]; first compound 1.581 µM) | relative viability ([4]; first compound 5 µM) | relative viability ([4]; first compound 15.81 µM) | relative viability ([4]; first compound 50 µM) |
| --- | --- | --- | --- | --- | --- | --- | --- | --- | --- | --- | --- | --- | --- | --- | --- | --- | --- | --- | --- | --- |
| HCC-44 | 0.475 | 0.61 | 0.588 | 0.552 | 0.661 | 1.12 | 0.93 | 1.19 | 1.19 | 1.23 | 0.952 | 1.03 | 1.01 | 1.04 | 1.03 | 0.504 | 0.418 | 0.43 | 0.511 | 0.547 |
| NCI-H520 | 0.338 | 0.255 | 0.29 | 0.354 | 0.387 | 0.236 | 0.226 | 0.217 | 0.184 | 0.209 | 0.232 | 0.205 | 0.231 | 0.199 | 0.239 | 0.301 | 0.22 | 0.285 | 0.324 | 0.268 |
| SW 1573 | 0.484 | 0.392 | 0.535 | 0.528 | 0.603 | 0.399 | 0.153 | 0.203 | 0.174 | 0.193 | 0.369 | 0.359 | 0.374 | 0.34 | 0.38 | 0.591 | 0.524 | 0.674 | 0.649 | 0.826 |
| NCI-H322M | 0.533 | 0.438 | 0.475 | 0.515 | 0.524 | 0.758 | 0.803 | 0.902 | 0.777 | 0.798 | 0.484 | 0.43 | 0.431 | 0.482 | 0.457 | 0.557 | 0.535 | 0.634 | 0.519 | 0.609 |
| EKVX | 0.458 | 0.383 | 0.476 | 0.427 | 0.476 | 0.894 | 0.887 | 0.836 | 0.836 | 0.865 | 0.354 | 0.374 | 0.377 | 0.74 | 0.412 | 0.797 | 0.851 | 0.79 | 0.758 | 0.776 |
| NCI-H1734 | 0.507 | 0.294 | 0.462 | 0.491 | 0.47 | 0.179 | 0.197 | 0.199 | 0.169 | 0.183 | 0.316 | 0.296 | 0.37 | 0.305 | 0.362 | 0.555 | 0.526 | 0.581 | 0.606 | 0.677 |
| ABC-1 | 0.75 | 0.761 | 0.783 | 0.815 | 0.737 | 0.495 | 0.47 | 0.668 | 0.564 | 0.785 | 0.726 | 0.776 | 0.909 | 0.793 | 0.714 | 0.469 | 0.501 | 0.467 | 0.417 | 0.631 |
| EPLC-272H | 0.282 | 0.246 | 0.333 | 0.297 | 0.349 | 0.188 | 0.388 | 0.264 | 0.289 | 0.33 | 0.281 | 0.34 | 0.309 | 0.285 | 0.295 | 0.249 | 0.232 | 0.276 | 0.252 | 0.314 |
